Source: ChEMBL document CHEMBL3885861, “Open TG-GATES”

Organism: Rattus norvegicus
Test: Open TG-GATES - Regimen: Daily Repeat
Type: toxicity, organism-based, Sprague-Dawley
Design: regimen Daily Repeat, gender Male, age 6 weeks
Conditions: in vivo, po, 0 mg/kg, route gavage, dose level Control; for APTT / Bas / Eos / Fbg / Hb / Ht / Lym / MCH / MCHC / MCV / Mono / Neu / PT / Plat / RBC / Ret / WBC: tissue Blood; for KIDNEY_L / KIDNEY_R / KIDNEY_TOTAL: tissue Kidney; for LIVER: tissue Liver; for A/G / ALP / ALT / AST / BUN / CRE / Ca / Cl / DBIL / GLC / IP / K / LDH / Na / PL / RALB / TBIL / TC / TG / TP / gamma-GTP: tissue Plasma

## COC1=CC(=O)C[C@@H](C)[C@]12Oc1c(Cl)c(OC)cc(OC)c1C2=O [GRISEOFULVIN]
72 h, time 3 day
  TERMINAL_BW: 226.2 g
  APTT: 20.3 s
  Bas: 0%
  Eos: 1%
  Fbg: 209.6 mg/dL
  Hb: 12.8 g/dL
  Ht: 38%
  Lym: 81.8%
  MCH: 21.4 pg
  MCHC: 33.6%
  MCV: 63.5 fL
  Mono: 2.4%
  Neu: 15%
  PT: 13.1 s
  Plat: 133.8 x10_4/uL
  RBC: 598.2 x10_4/ul
  Ret: 6.7%
  WBC: 92 x10_2/uL
  KIDNEY_L: 0.9 g
  KIDNEY_R: 0.9 g
  KIDNEY_TOTAL: 1.9 g
  LIVER: 10.4 g
  A/G: 1.6
  ALP: 917.8 IU/L
  ALT: 35 IU/L
  AST: 66.2 IU/L
  BUN: 14.6 mg/dL
  CRE: 0.4 mg/dL
  Ca: 10.6 mg/dL
  Cl: 104.4 meq/L
  DBIL: 0.1 mg/dL
  GLC: 210.8 mg/dL
  IP: 7.7 mg/dL
  K: 4 meq/L
  LDH: 154 IU/L
  Na: 141 meq/L
  PL: 130.6 mg/dL
  RALB: 3.3 g/dL
  TBIL: 0.2 mg/dL
  TC: 69 mg/dL
  TG: 79 mg/dL
  TP: 5.3 g/dL
  gamma-GTP: 1.2 IU/L
[…], time 7 day
  TERMINAL_BW: 261.4 g
  APTT: 18.8 s
  Bas: 0%
  Eos: 0.8%
  Fbg: 236 mg/dL
  Hb: 14.1 g/dL
  Ht: 42%
  Lym: 78%
  MCH: 21.7 pg
  MCHC: 33.6%
  MCV: 64.8 fL
  Mono: 3%
  Neu: 17.4%
  PT: 12.3 s
  Plat: 122.6 x10_4/uL
  RBC: 647.4 x10_4/ul
  Ret: 5.2%
  WBC: 117.8 x10_2/uL
  KIDNEY_L: 1.1 g
  KIDNEY_R: 1.2 g
  KIDNEY_TOTAL: 2.3 g
  LIVER: 12.6 g
  A/G: 1.6
  ALP: 944.2 IU/L
  ALT: 41.2 IU/L
  AST: 81 IU/L
  BUN: 14.6 mg/dL
  CRE: 0.4 mg/dL
  Ca: 10.8 mg/dL
  Cl: 103.4 meq/L
  DBIL: 0.1 mg/dL
  GLC: 206.8 mg/dL
  IP: 7.4 mg/dL
  K: 3.9 meq/L
  LDH: 155.4 IU/L
  Na: 142.2 meq/L
  PL: 146.6 mg/dL
  RALB: 3.5 g/dL
  TBIL: 0.2 mg/dL
  TC: 75.8 mg/dL
  TG: 112.2 mg/dL
  TP: 5.8 g/dL
  gamma-GTP: 1.2 IU/L
[…], time 14 day
  TERMINAL_BW: 310.7 g
  APTT: 19.7 s
  Bas: 0%
  Eos: 1%
  Fbg: 226.2 mg/dL
  Hb: 14.1 g/dL
  Ht: 42.2%
  Lym: 81.2%
  MCH: 20.8 pg
  MCHC: 33.4%
  MCV: 62.2 fL
  Mono: 3%
  Neu: 14.4%
  PT: 12.4 s
  Plat: 117 x10_4/uL
  RBC: 678.6 x10_4/ul
  Ret: 3%
  WBC: 116.8 x10_2/uL
  KIDNEY_L: 1.2 g
  KIDNEY_R: 1.2 g
  KIDNEY_TOTAL: 2.4 g
  LIVER: 13.6 g
  A/G: 1.5
  ALP: 820.2 IU/L
  ALT: 32.8 IU/L
  AST: 55.8 IU/L
  BUN: 15 mg/dL
  CRE: 0.5 mg/dL
  Ca: 10.6 mg/dL
  Cl: 102.4 meq/L
  DBIL: 0.1 mg/dL
  GLC: 236 mg/dL
  IP: 7.3 mg/dL
  K: 4.2 meq/L
  LDH: 130.6 IU/L
  Na: 139.8 meq/L
  PL: 145.8 mg/dL
  RALB: 3.5 g/dL
  TBIL: 0.2 mg/dL
  TC: 73.6 mg/dL
  TG: 107.2 mg/dL
  TP: 5.8 g/dL
  gamma-GTP: 0.8 IU/L
[…], time 28 day
  TERMINAL_BW: 391 g
  APTT: 20.6 s
  Bas: 0%
  Eos: 0.8%
  Fbg: 220 mg/dL
  Hb: 15.2 g/dL
  Ht: 44.8%
  Lym: 82.4%
  MCH: 19.7 pg
  MCHC: 34%
  MCV: 58 fL
  Mono: 2%
  Neu: 14%
  PT: 12.3 s
  Plat: 115.6 x10_4/uL
  RBC: 774.2 x10_4/ul
  Ret: 2.7%
  WBC: 130.8 x10_2/uL
  KIDNEY_L: 1.4 g
  KIDNEY_R: 1.4 g
  KIDNEY_TOTAL: 2.8 g
  LIVER: 16.1 g
  A/G: 1.5
  ALP: 889.4 IU/L
  ALT: 36.4 IU/L
  AST: 56.8 IU/L
  BUN: 15.2 mg/dL
  CRE: 0.5 mg/dL
  Ca: 10.5 mg/dL
  Cl: 102.8 meq/L
  DBIL: 0.078 mg/dL
  GLC: 240.2 mg/dL
  IP: 7.2 mg/dL
  K: 3.6 meq/L
  LDH: 155.8 IU/L
  Na: 141.2 meq/L
  PL: 132.8 mg/dL
  RALB: 3.5 g/dL
  TBIL: 0.2 mg/dL
  TC: 72.6 mg/dL
  TG: 65.4 mg/dL
  TP: 6 g/dL
  gamma-GTP: 1.2 IU/L
